Laboratory results published in patent US20100008971A1, “CHEWING COMPOSITION COMPRISING COENZYME Q10” (SAN-EI GEN F.F.I., INC., priority 2006, published 2010).

Legend:
[1] = Release of Coenzyme Q10 into saliva from stick gums chewed by four subjects (HPLC of chewed gum); assay type: in vivo, human; conditions: 0.048 wt % CoQ10 in gum, 1 g chewed 5 min, 60 times/min
Description: Using one of Samples 1 to 5 obtained above, raw materials were blended according to the formulation shown below such that the content of Coenzyme Q10 in 100 g of the resulting stick gum would be 48 mg, and each mixture was molded to form a stick gum. Specific procedures are as follows: A gum base was first kneaded at 70° C. with sugar, corn syrup and glycerol, and the mixture was blended with Lemon Oil No. 2451* (flavoring agent) and San Yellow^‡ No. 3* (colorant). One each of Samples 1, 2, 3, 4 or 5 was then added to the resulting mixture. After cooling to room temperature, each material was rolled and molded to prepare a chewing gum (stick gum). The gum base used in the following formulation was purchased from Lotte, Co., Ltd. (Gum Base LT1).
Each type of the stick gums thus prepared was sampled in a precise amount of 4 g, and placed in a stoppered centrifuge tube. To the tube was added 10 ml of a 20% (v/v) tetrahydrofuran aqueous solution. The tube was then equipped with a Dimroth condenser, and the solution was refluxed, while occasionally mixing it by shaking, in a hot bath at 82° C. for 30 minutes. The refluxed solution was then cooled to room temperature, and 15 ml of diethyl ether was added, followed by extraction with shaking for 10 minutes. […]
The proportion of Coenzyme Q10 released into saliva was determined based on Equation 1: […]

[2] = Release of Coenzyme Q10 into saliva from sugar-coated gums with the sample in the sugar coating, chewed by four subjects; assay type: in vivo, human; conditions: sugar-coated gum, 0.020 wt % CoQ10 in gum, one piece (1.5 g) chewed 5 min, 60 times/min
Description: Sugar-coated gums (1.5 g/tablet) each comprising Coenzyme Q10 in the sugar coating were prepared in the manner described below such that the content of Coenzyme Q10 in 100 g of the sugar-coated gum was 20 mg.
A gum base (trade name: Gum Base LT2, manufactured by Lotte, Co., Ltd.) was kneaded at 70° C. with xylitol, corn syrup and glycerol, and after the addition of Lemon Oil No. 2451* (flavoring agent), the mixture was cooled to room temperature and molded to a tablet shape.
Maltitol and gum arabic were added to water and dissolved by heating. After cooling the mixture to room temperature, one each of Sample 1, 2, 4, 5 or 6 was added and mixed homogeneously.
The sugar solutions thus obtained were each spray dried over the gum centers using a coating pan and dried. The proportion of the sugar-coating layer was 50 parts by weight to 100 parts by weight of the gum center. […]
Each type of the sugar-coated gums prepared above were sampled in a precise amount of 6 g (total weight of four pieces), and one piece each of these gums was chewed by four subjects under the same conditions as in Test Example 1. […] The samples were subjected to HPLC under the same conditions to determine the contents of Coenzyme Q10 in the chewed gums, and then the release of Coenzyme Q10 into saliva from these gums was evaluated as in Test Example 1.

Release (%) of Coenzyme Q10 into saliva [1]: 0%
Release (%) of Coenzyme Q10 into saliva [2]: 30.0%
Structure (SMILES): COC1=C(OC)C(=O)C(C/C=C(\C)CC/C=C(\C)CC/C=C(\C)CC/C=C(\C)CC/C=C(\C)CC/C=C(\C)CC/C=C(\C)CC/C=C(\C)CC/C=C(\C)CCC=C(C)C)=C(C)C1=O [Sample 5, Coenzyme Q10]
